Columns and labels:
calcium level in serum = experiment: Serum calcium in patient with sarcoidosis accompanied by hypercalcemia (Example 8); format: in vivo, human; details: person two
Experimental: To patient two diagnosed to be sarcoidosis accompanied by hypercalcemia of the calcium level in their serum of 14.0 mg/dl, the capsule composition similar to that prepared in Example 6 was administered orally at a daily dose of two capsules each containing 5 micrograms of 24R,25-(OH)2 -D3 for continuous 5 days. The calcium level in serum from the blood specimen collected on the sixth day of the commencement of the treatment was 10.8 mg/dl.

gastric ulcer = experiment: Prevention of gastric ulcer due to pyloric ligation (Example 9); format: in vivo, male Wistar rats; details: 200 µg/kg i.p. once after pyloric ligation, 15 h
Experimental: Twenty male Wistar rats of average body weight of 250 g were divided equally into two groups, and used in the following test:
After 36 hour fasting, all the rats were subjected to pyloric ligation, and the rats of the first group were administered with 2 ml/kg of Panacete®810 (triglyceride ester of C8 and C10 -fatty acid, made by Nippon Oil & Fats Co., Ltd.) containing 0.2% by weight of ethanol intraperitoneally once just after ligation. The rats of the second group were administered with 24R,25-(OH)2 -D3 dissolved in Panacete®810 containing 0.2% by weight of ethanol intraperitoneally at a dose rate of 200 micrograms/kg body weight once just after ligation. After 15 hours of administration, all the rats were subjected to gastrectomy, and the presence or absence of the gastroparietal ulcer was examined on all the resected stomach.
As a result, the occurrence of gastric ulcer was found on 9 rats of 10 rats of the first group, and on 2 rats of 10 rats of the second group.
In a similar test, 24S,25-(OH)2 -D3 was used instead of 24R,25-(OH)2 -D3 to examine its effect in preventing the occurrence of gastric ulcer due to pyloric ligation. As a result, the occurrence of gastric ulcer was recognized on 3 rats of 10 rats of the group similarly treated to those of the second group.

[1] = system: content of magnesium in serum and bone; experiment: Serum and bone magnesium in rats on Vitamin D-deficient diet (Example 16); format: in vivo, male Wistar rats; details: diet TD-81143
Experimental: Forty male Wistar rats in 9th week after birth were divided equally into four groups, and the rats of each group were treated as follows:
The rats of the first group were raised with a normal diet (TD-81144) with daily oral administration of 0.2 ml of MCT (refer to Example 15)/100 g body weight for 5 weeks.
The rats of the second group were raised with a Vitamin D-deficient diet (TD-81143, made by TEKLAD Co., U.S.A., which causes abnormal metabolism of magnesium) with daily oral administration of 0.2 ml of MCT/100 g body weight for 5 weeks.
The rats of the third group were raised with the Vitamin D-deficient diet as in those of the […] with daily oral administration of 1 microgram of 24R,25-(OH)2 -D3 dissolved in 0.2 ml of MCT/100 g body weight for 5 weeks.
The rats of the fourth group were raised with the Vitamin D-deficient diet as in those of the […] with daily oral administration of 10 micrograms of 24R,25-(OH)2 -D3 dissolved in 0.2 ml of MCT/100 g body weight for 5 weeks.
After the final administration was over, all the rats were sacrificed to collect their bones and blood respectively.
Serum specimen was prepared by the ordinary method from the blood specimen, and the bones were washed to remove marrow, lyopholized at -20° C. for 3 days and pulverized in a mortar. After de-ashing 50 mg of the thus pulverized bone with 1 ml of 2 N aqueous hydrochloric solution at room temperature, the insoluble matter was removed by filtration, and the filtrate was subjected to atomic absorption method to find out the content of magnesium in the bone specimen. Magnesium content of the serum specimen was determined by atomic absorption method.

[2] = system: inorganic phosphate in serum; experiment: Serum inorganic phosphate in chronic renal failure patients without hemodialysis (Example 20); format: in vivo, human
Experimental: Eight patients suffering from chronic renal failure and not being subjected to hemodialysis shown in Table 14 were treated by oral daily administration of 24R,25-(OH)2 -D3 in a form of the soft capsule composition obtained in Example 6 at a daily dose of 2 to 10 micrograms for 8 weeks. The concentration of inorganic phosphate in the serum of each patient before the above-mentioned administration and that after completion of the above-mentioned administration for 8 weeks were determined by the Molybdenum Blue method, the results being shown in Table 14.

[3] = system: K-562 tumour cell derived from human leukemia; experiment: Inhibition of proliferation of K-562 cells (Example 24); format: cell-based; details: 3 days
Experimental: Cultured K-562 tumour cell derived from human leukemia, which proliferates in a suspended state in RPMI-1640 culture medium added with 10% by weight of fetal bovine serum was used in the following experiment.
The cells were cultured in the above-mentioned culture medium at an initial cell concentration of 1×10^5 cells/ml with or without adding 24R,25-(OH)2 -D3, which was placed in dishes kept in an incubator of an atmosphere consisting of 95% by volume of air and 5% by volume of gaseous carbon dioxide at 37° C. After culturing 3 days, the cultured medium was stained with tripan blue to count the total number of living cells. The results are shown in Table 18 with the specifically added substances into the culture medium other than fetal bovine serum of 10% by weight.

**Q.** `C=C1CC[C@H](O)C/C1=C/C=C1\CCC[C@]2(C)[C@@H]([C@H](C)CC[C@@H](O)C(C)(C)O)CC[C@@H]12` [24R,25-(OH)2 -D3] was tested. Which “calcium level in serum before treatment” value (calcium level in serum; baseline) did it give?
**A.** 14.0 mg/dL

**Q.** What about the “calcium level in serum on the sixth day” value (calcium level in serum; two 5 µg capsules/day oral, 5 days) of the same compound?
**A.** 10.8 mg/dL

**Q.** And the “occurrence of gastric ulcer” value (gastric ulcer)?
**A.** 2 rats of 10 rats

**Q.** And the “Content of magnesium in bone” value ([1]; 1 µg/100 g/day oral 5 weeks)?
**A.** 0.395 ± 0.021%

**Q.** What about the “Content of magnesium in serum” value ([1]; 1 µg/100 g/day oral 5 weeks) of the same compound?
**A.** 4.0 ± 0.3 mg/dL

**Q.** And the “Content of magnesium in bone” value ([1]; 10 µg/100 g/day oral 5 weeks)?
**A.** 0.396 ± 0.016%

**Q.** And the “Content of magnesium in serum” value ([1]; 10 µg/100 g/day oral 5 weeks)?
**A.** 3.6 ± 0.3 mg/dL

**Q.** And the “Concentration of inorganic phosphate after administration, average” value ([2]; average of 8 patients, 2 to 10 µg/day, 8 weeks)?
**A.** 4.60 ± 0.66 mg/dL

**Q.** And the “Concentration of inorganic phosphate before administration, average” value ([2]; average of 8 patients, baseline)?
**A.** 6.24 ± 0.53 mg/dL

**Q.** What about the “Concentration of inorganic phosphate after administration” value ([2]; patient 1 (person six), 10 µg/day, 8 weeks) of the same compound?
**A.** 5.5 mg/dL

**Q.** What about the “Concentration of inorganic phosphate before administration” value ([2]; patient 1 (person six), baseline) of the same compound?
**A.** 7.2 mg/dL

**Q.** And the “Concentration of inorganic phosphate after administration” value ([2]; patient 2 (person sixteen), 6 µg/day, 8 weeks)?
**A.** 4.7 mg/dL

**Q.** What about the “Concentration of inorganic phosphate before administration” value ([2]; patient 2 (person sixteen), baseline) of the same compound?
**A.** 6.3 mg/dL

**Q.** What about the “Concentration of inorganic phosphate after administration” value ([2]; patient 3 (person four), 4 µg/day, 8 weeks) of the same compound?
**A.** 4.7 mg/dL

**Q.** What about the “Concentration of inorganic phosphate before administration” value ([2]; patient 3 (person four), baseline) of the same compound?
**A.** 5.9 mg/dL

**Q.** What about the “Concentration of inorganic phosphate after administration” value ([2]; patient 4 (person twelve), 8 µg/day, 8 weeks) of the same compound?
**A.** 4.9 mg/dL

**Q.** What about the “Concentration of inorganic phosphate before administration” value ([2]; patient 4 (person twelve), baseline) of the same compound?
**A.** 6.5 mg/dL

**Q.** And the “Concentration of inorganic phosphate after administration” value ([2]; patient 5 (person twenty), 6 µg/day, 8 weeks)?
**A.** 5.3 mg/dL

**Q.** And the “Concentration of inorganic phosphate before administration” value ([2]; patient 5 (person twenty), baseline)?
**A.** 6.6 mg/dL

**Q.** And the “Concentration of inorganic phosphate after administration” value ([2]; patient 6 (person three), 4 µg/day, 8 weeks)?
**A.** 3.8 mg/dL

**Q.** And the “Concentration of inorganic phosphate before administration” value ([2]; patient 6 (person three), baseline)?
**A.** 5.8 mg/dL

**Q.** What about the “Concentration of inorganic phosphate after administration” value ([2]; patient 7 (person one), 2 µg/day, 8 weeks) of the same compound?
**A.** 3.7 mg/dL

**Q.** And the “Concentration of inorganic phosphate before administration” value ([2]; patient 7 (person one), baseline)?
**A.** 5.5 mg/dL

**Q.** What about the “Concentration of inorganic phosphate after administration” value ([2]; patient 8 (person ten), 6 µg/day, 8 weeks) of the same compound?
**A.** 4.2 mg/dL

**Q.** What about the “Concentration of inorganic phosphate before administration” value ([2]; patient 8 (person ten), baseline) of the same compound?
**A.** 6.1 mg/dL

**Q.** And the “inorganic phosphate level in serum” value ([2]; patient of chronic renal failure, normal level 2.5 to 5.5 mg/dl)?
**A.** significantly reduced to the normal level

**Q.** And the “Number of K-562 cells after culture” value ([3]; 1 microgram/ml)?
**A.** 8.5 ×10^5 cells/ml

**Q.** And the “Number of K-562 cells after culture” value ([3]; 10 micrograms/ml)?
**A.** 3.5 ×10^5 cells/ml

**Q.** And the inhibition at 1 µg/mL ([3]; Homo sapiens, K562, 72 h, 1 microgram/ml, vs dimethylsulfoxide, read-out: Inhibition Rate of K-562 cells)?
**A.** 14%

**Q.** And the inhibition at 10 µg/mL ([3]; Homo sapiens, K562, 72 h, 10 micrograms/ml, vs dimethylsulfoxide, read-out: Inhibition Rate of K-562 cells)?
**A.** 65%

From patent US4442093A, “Method for administering 24,25-dihydroxycholecalciferol to persons suffering from hypercalcemia” (Kureha Kagaku Kogyo Kabushiki Kaisha, priority 1981, dated 1984)
